According to the supplement of paper PMC10883282:
Structures can show the parent of a compound that is named as a salt. ± gives the standard deviation of the averaged measurements.

Tested on: KHOS-NP
Assay: relative viability vs DMSO control (72 h) (fraction); higher = more viable cells
Method in brief: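 Sarcoma cell lines were seeded in 384-well plates at densities set to reach 80–90% confluence. After 24 h, 2.5 µl of serially diluted compound was added (source plates 10 mM to 0.0002 mM), and plates were held 72 h at 37 °C, 5% CO2, with 0.1% DMSO vehicle and a 5 µM positive control. Relative viability came from ATPLite readings as percent growth, averaged over up to triplicate wells. Data were rescaled so full viability equals 1 and none equals 0.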

Row | SMILES | relative viability (0.00017 µM) | relative viability (0.00051 µM) | relative viability (0.00152 µM) | relative viability (0.00457 µM) | relative viability (0.01372 µM) | relative viability (0.04115 µM) | relative viability (0.1235 µM) | relative viability (0.3704 µM) | relative viability (1.111 µM) | relative viability (3.333 µM) | relative viability (10 µM)
1 | C[C@@H]1COCCN1c1cc(-c2ccnn2C)c2ccnc(-c3ccn[nH]3)c2n1 | 1.07 ± 0.036 | 1.07 ± 0.012 | 1.07 ± 0.025 | 1.06 ± 0.029 | 1.06 ± 0.02 | 1.09 ± 0.026 | 1 ± 0.037 | 0.898 ± 0.025 | 0.538 ± 0.042 | 0.377 ± 0.0063 | 0.281 ± 0.026
2 | CCN1CCN(Cc2ccc(Nc3ncc(F)c(-c4cc(F)c5nc(C)n(C(C)C)c5c4)n3)nc2)CC1 [Abemaciclib] | 1.04 ± 0.032 | 1.02 ± 0.029 | 1.02 ± 0.018 | 1.03 ± 0.017 | 1.033 ± 0.0059 | 1.033 ± 0.01 | 1.04 ± 0.014 | 1.055 ± 0.0084 | 1.01 ± 0.048 | 0.753 ± 0.036 | 0.6015 ± 0.0059
3 | CCc1cc2c(cc1N1CCC(N3CCOCC3)CC1)C(C)(C)c1[nH]c3cc(C#N)ccc3c1C2=O [Alectinib] | 1.07 ± 0.032 | 1.09 ± 0.031 | 1.082 ± 0.0076 | 1.08 ± 0.011 | 1.08 ± 0.013 | 1.089 ± 0.0044 | 1.09 ± 0.021 | 1.074 ± 0.0034 | 1.06 ± 0.026 | 1.05 ± 0.01 | 1.04 ± 0.044
4 | Cc1nc(NC(=O)N2CCC[C@H]2C(N)=O)sc1-c1ccnc(C(C)(C)C(F)(F)F)c1 [Alpelisib] | 1.07 ± 0.031 | 1.073 ± 0.0087 | 1.06 ± 0.024 | 1.05 ± 0.021 | 1.03 ± 0.028 | 1.02 ± 0.018 | 1.02 ± 0.067 | 1.04 ± 0.014 | 0.992 ± 0.053 | 0.9227 ± 0.0047 | 0.828 ± 0.049
5 | Cn1cc(-c2cc3c(N4CCN(c5ncc([C@@](C)(N)c6ccc(F)cc6)cn5)CC4)ncnn3c2)cn1 [Avapritinib] | 1.021 ± 0.0094 | 1.05 ± 0.031 | 1.02 ± 0.027 | 1.04 ± 0.029 | 1.03 ± 0.017 | 1.03 ± 0.015 | 1 ± 0.022 | 0.948 ± 0.041 | 0.861 ± 0.024 | 0.685 ± 0.033 | 0.586 ± 0.048
6 | CC(C)NC(=O)C1CCC(n2c(NC(=O)c3ccc(F)cc3)nc3ccc(CN4CCC(C(C)(C)O)CC4)cc32)CC1 (stereo not drawn) [Belizatinib] | 1.09 ± 0.025 | 1.095 ± 0.005 | 1.109 ± 0.0095 | 1.1 ± 0.02 | 1.104 ± 0.011 | 1.1 ± 0.021 | 1.1 ± 0.016 | 1.09 ± 0.028 | 1.09 ± 0.033 | 0.996 ± 0.059 | 0.654 ± 0.033
7 | Cn1cnc2c(F)c(Nc3ccc(Br)cc3F)c(C(=O)NOCCO)cc21 [Binimetinib] | 1.06 ± 0.034 | 1.09 ± 0.015 | 1.081 ± 0.004 | 1.097 ± 0.0049 | 1.06 ± 0.045 | 0.943 ± 0.075 | 0.857 ± 0.012 | 0.802 ± 0.066 | 0.425 ± 0.015 | 0.291 ± 0.016 | 0.276 ± 0.012
8 | Nc1cc(C(F)(F)F)c(-c2cc(N3CCOCC3)nc(N3CCOCC3)n2)cn1 [Buparlisib] | 1.067 ± 0.01 | 1.03 ± 0.024 | 1.07 ± 0.038 | 1.06 ± 0.012 | 1.07 ± 0.033 | 1.05 ± 0.013 | 1.07 ± 0.022 | 1.07 ± 0.048 | 0.944 ± 0.053 | 0.426 ± 0.026 | 0.266 ± 0.013
9 | CNC(=O)c1ccc(-c2cnc3ncc(Cc4ccc5ncccc5c4)n3n2)cc1F [Capmatinib] | 1.1 ± 0.021 | 1.08 ± 0.016 | 1.098 ± 0.0065 | 1.06 ± 0.023 | 1.094 ± 0.0089 | 1.1 ± 0.032 | 1.09 ± 0.021 | 1.07 ± 0.035 | 1.09 ± 0.023 | 1.09 ± 0.021 | 1.09 ± 0.026
10 | COc1cc2c(Oc3ccc4[nH]c(C)cc4c3F)ncnc2cc1OCCCN1CCCC1 [Cediranib] | 1.08 ± 0.025 | 1.11 ± 0.02 | 1.09 ± 0.013 | 1.08 ± 0.015 | 1.09 ± 0.018 | 1.09 ± 0.014 | 1.04 ± 0.027 | 1.07 ± 0.029 | 1.036 ± 0.0041 | 1.05 ± 0.016 | 1.03 ± 0.023
11 | COc1c(OCCCN2CCOCC2)ccc2c1N=C(NC(=O)c1cnc(N)nc1)N1CCN=C21 [Copanlisib] | 1.1 ± 0.042 | 1.1 ± 0.029 | 1.11 ± 0.015 | 1.088 ± 0.0075 | 1.075 ± 0.01 | 1.04 ± 0.029 | 1.003 ± 0.01 | 0.907 ± 0.021 | 0.523 ± 0.014 | 0.198 ± 0.0088 | 0.146 ± 0.011
12 | CN1CCN(c2ccc3nc(-c4c(N)c5c(F)cccc5[nH]c4=O)[nH]c3c2)CC1 [Dovitinib] | 1.08 ± 0.038 | 1.11 ± 0.018 | 1.107 ± 0.0074 | 1.104 ± 0.007 | 1.13 ± 0.025 | 1.11 ± 0.029 | 1.1 ± 0.033 | 1.04 ± 0.07 | 1.03 ± 0.035 | 0.677 ± 0.029 | 0.248 ± 0.032
13 | COc1cccc2c1C(=O)c1c(O)c3c(c(O)c1C2=O)C[C@@](O)(C(=O)CO)C[C@@H]3O[C@H]1C[C@H](N)[C@H](O)[C@H](C)O1 [Doxorubicin Hydrochloride] | 1.09 ± 0.024 | 1.08 ± 0.04 | 1.07 ± 0.042 | 1.07 ± 0.0061 | 1.02 ± 0.062 | 1.04 ± 0.033 | 0.814 ± 0.038 | 0.475 ± 0.029 | 0.266 ± 0.014 | 0.0899 ± 0.0038 | 0.058 ± 0.0052
14 | Cc1cnc(Nc2ccc(OCCN3CCCC3)cc2)nc1Nc1cccc(S(=O)(=O)NC(C)(C)C)c1 [Fedratinib] | 1.09 ± 0.023 | 1.08 ± 0.049 | 1.08 ± 0.05 | 1.09 ± 0.016 | 1.07 ± 0.022 | 1.06 ± 0.018 | 1.02 ± 0.029 | 1.01 ± 0.039 | 0.905 ± 0.046 | 0.511 ± 0.017 | 0.216 ± 0.0037
15 | C=CC(=O)N1CCC[C@@H](n2nc(-c3ccc(Oc4ccccc4)cc3)c3c(N)ncnc32)C1 [Ibrutinib] | 1.08 ± 0.025 | 1.086 ± 0.0071 | 1.08 ± 0.025 | 1.07 ± 0.013 | 1.05 ± 0.032 | 1.04 ± 0.014 | 1.05 ± 0.015 | 1.01 ± 0.045 | 1.034 ± 0.01 | 1.03 ± 0.043 | 0.995 ± 0.043
16 | CC[C@H](Nc1ncnc2[nH]cnc12)c1nc2cccc(F)c2c(=O)n1-c1ccccc1 [Idelalisib] | 1.117 ± 0.0096 | 1.12 ± 0.017 | 1.12 ± 0.022 | 1.105 ± 0.01 | 1.11 ± 0.041 | 1.11 ± 0.025 | 1.1 ± 0.046 | 1.1 ± 0.024 | 1.085 ± 0.0061 | 1.06 ± 0.043 | 1.04 ± 0.019
17 | O=C(Cc1ccc(-c2ccc(OCCN3CCOCC3)cc2)cn1)NCc1ccccc1 [KX2-391] | 1.106 ± 0.0028 | 1.11 ± 0.033 | 1.11 ± 0.031 | 1.11 ± 0.036 | 1.09 ± 0.03 | 1.039 ± 0.01 | 0.586 ± 0.013 | 0.456 ± 0.026 | 0.378 ± 0.0089 | 0.376 ± 0.0087 | 0.364 ± 0.028
18 | O=C(Nc1cnn2ccc(N3CCC[C@@H]3c3cc(F)ccc3F)nc12)N1CC[C@H](O)C1 [Larotrectinib] | 1.1 ± 0.025 | 1.09 ± 0.013 | 1.08 ± 0.016 | 1.09 ± 0.024 | 1.1 ± 0.016 | 1.06 ± 0.03 | 1.05 ± 0.053 | 1.08 ± 0.021 | 1.05 ± 0.027 | 1.02 ± 0.014 | 1.01 ± 0.038
